# From PMC12389234, “Bioactive Potential of Nepenthes miranda Flower Extracts: Antidiabetic, Anti-Skin Aging, Cytotoxic, and Dihydroorotase-Inhibitory Activities” (Plants, 2025)
# Molecular target: T1, porcine pancreatic elastase (Sus scrofa, UniProt P00772)
# T1 construct: gene CELA1; native mature enzyme from porcine pancreas (commercial, Sigma-Aldrich)
# Assay: spectrophotometric, p-nitroanilide release, […] nm
# Format: biochemical
# T1 sequence (P00772 27-266): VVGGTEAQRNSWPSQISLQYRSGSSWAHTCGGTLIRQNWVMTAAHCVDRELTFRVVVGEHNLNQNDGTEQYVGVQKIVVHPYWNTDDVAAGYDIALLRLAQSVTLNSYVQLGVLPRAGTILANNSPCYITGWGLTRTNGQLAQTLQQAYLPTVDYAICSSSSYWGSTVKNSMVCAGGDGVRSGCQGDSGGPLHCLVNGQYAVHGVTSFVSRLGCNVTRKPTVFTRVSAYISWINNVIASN
structure (smiles),measurement,value
O=C(O[C@@H]1Cc2c(O)cc(O)cc2O[C@@H]1c1cc(O)c(O)c(O)c1)c1cc(O)c(O)c(O)c1 [EGCG],IC50,9.27 µM
